Measurements published in US20090005363A1, “Organic Compounds” (priority 2005, published 2009).
Counter-ions that a name gives are not always drawn.

Molecular target: mGluR5 (Homo sapiens, UniProt P41594)
Experiment: inhibition of the glutamate induced elevation of intracellular Ca2+ concentration
Conditions: for inhibition at 10 µM: read-out: mGluR5 Activity inh. at 10 μM [%]; for mGluR5 Activity inh. at 10 μM [%]: inhibition of glutamate induced elevation of intracellular Ca2+ concentration at 10 μM
Source text: This can be determined in vitro for example at recombinant human metabotropic glutamate receptors, especially PLC-coupled subtypes thereof such as mGluR5, using different procedures like, for example, measurement of the inhibition of the agonist induced elevation of intracellular Ca^2+ concentration in accordance with L. P. Daggett et al., Neuropharm.

Chain of mGluR5 (P41594 21-1180 isoform P41594-2 limits assumed): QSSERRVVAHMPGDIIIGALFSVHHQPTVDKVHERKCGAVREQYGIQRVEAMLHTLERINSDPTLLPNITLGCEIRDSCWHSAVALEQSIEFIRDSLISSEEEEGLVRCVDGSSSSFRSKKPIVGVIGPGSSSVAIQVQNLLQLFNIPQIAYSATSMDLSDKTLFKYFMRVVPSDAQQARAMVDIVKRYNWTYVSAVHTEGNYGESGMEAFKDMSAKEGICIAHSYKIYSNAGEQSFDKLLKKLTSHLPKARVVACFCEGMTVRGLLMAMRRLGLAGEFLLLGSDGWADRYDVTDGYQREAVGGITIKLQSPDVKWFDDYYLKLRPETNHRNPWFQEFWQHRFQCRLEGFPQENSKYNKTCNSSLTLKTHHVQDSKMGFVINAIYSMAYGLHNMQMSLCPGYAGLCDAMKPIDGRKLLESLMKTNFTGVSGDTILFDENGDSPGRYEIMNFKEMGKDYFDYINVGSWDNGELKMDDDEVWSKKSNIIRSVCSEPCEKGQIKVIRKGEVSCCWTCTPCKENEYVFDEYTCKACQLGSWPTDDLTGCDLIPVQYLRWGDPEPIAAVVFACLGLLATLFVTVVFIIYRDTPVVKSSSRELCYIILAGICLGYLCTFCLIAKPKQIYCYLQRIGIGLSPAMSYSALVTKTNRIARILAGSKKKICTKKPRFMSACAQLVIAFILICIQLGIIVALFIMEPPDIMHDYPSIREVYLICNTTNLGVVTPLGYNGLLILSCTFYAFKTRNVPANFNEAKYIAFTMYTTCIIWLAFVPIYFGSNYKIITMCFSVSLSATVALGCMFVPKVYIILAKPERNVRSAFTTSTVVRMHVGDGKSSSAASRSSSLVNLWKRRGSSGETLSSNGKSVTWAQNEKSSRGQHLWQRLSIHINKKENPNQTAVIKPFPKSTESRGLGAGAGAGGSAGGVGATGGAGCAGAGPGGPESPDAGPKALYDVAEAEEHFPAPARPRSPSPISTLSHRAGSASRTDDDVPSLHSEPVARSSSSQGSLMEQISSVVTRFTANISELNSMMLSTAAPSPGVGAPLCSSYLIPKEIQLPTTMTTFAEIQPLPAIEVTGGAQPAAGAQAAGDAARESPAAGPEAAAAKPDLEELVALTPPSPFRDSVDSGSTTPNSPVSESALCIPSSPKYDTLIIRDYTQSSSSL

Row | SMILES | inhibition at 10 µM [%] | mGluR5 Activity inh. at 10 μM [%]
1 | CC1CCCN(C(=O)c2ccc(Nc3ccc(Cl)cc3)nc2)C1 (racemic) [Compound 1.12, rac-[6-(4-Chloro-phenylamino)-pyridin-3-yl]-(3-methyl-piperidin-1-yl)-methanone] | 93 | 
2 | O=C(c1cnc(Nc2ccc(Cl)cc2)c(Cl)c1)N1CC2CCC1C2 (racemic) [Compound 2.4, rac-(2-Aza-bicyclo[2.2.1]hept-2-yl)-[5-chloro-6-(4-chloro-phenylamino)-pyridin-3-yl]-methanone] | 100 | 
3 | COc1ccc(Nc2ncc(C(=O)N3CCCC(C)C3)cc2Cl)cn1 (racemic) [Compound 2.6, rac-[5-Chloro-6-(6-methoxy-pyridin-3-ylamino)-pyridin-3-yl]-(3-methyl-piperidin-1-yl)-methanone] | 98 | 
4 | Cc1ccc(Nc2ncc(C(=O)N3CC4CCC3C4)cc2Cl)cn1 (racemic) [Compound 2.13, rac-(2-Aza-bicyclo[2.2.1]hept-2-yl)-[5-chloro-6-(6-methyl-pyridin-3-ylamino)-pyridin-3-yl]-methanone] | 96 | 
5 | Cc1ccc(Oc2ncc(C(=O)N3CCCC(C)C3)cc2Cl)cn1 (racemic) [Compound 3.1, rac-[5-Chloro-6-(6-methyl-pyridin-3-yloxy)-pyridin-3-yl]-(3-methyl-piperidin-1-yl)-methanone] | 94 | 
6 | O=C(c1ccc(Nc2ccc(Cl)cc2)nc1)N1CCCC(CO)C1 (racemic) [Compound 4.6, rac-[6-(4-Chloro-phenylamino)-pyridin-3-yl]-(3-hydroxymethyl-piperidin-1-yl)-methanone] | 86 | 
7 | COC1CCCN(C(=O)c2ccc(Nc3ccc(Cl)cc3)nc2)C1 (racemic) [Compound 4.7, rac-[6-(4-Chloro-phenylamino)-pyridin-3-yl]-(3-methoxy-piperidin-1-yl)-methanone] | 87 | 
8 | O=C(c1ccc(Nc2ccc(Cl)cc2)nc1)N1CC2CCC1C2 (racemic) [Compound 4.12, rac-(2-Aza-bicyclo[2.2.1]hept-2-yl)-[6-(4-chloro-phenylamino)-pyridin-3-yl]-methanone] | 96 | 
9 | Cc1ccc(Nc2ccc(C(=O)N3CCCC(C)C3)cn2)cn1 (racemic) [Compound 4.13, rac-(3-Methyl-piperidin-1-yl)-[6-(6-methyl-pyridin-3-ylamino)-pyridin-3-yl]-methanone] | 97 | 
10 | CC1CCCN(C(=O)c2cnc(Nc3ccc(Cl)cc3)nc2)C1 (racemic) [Compound 5.5, rac-[2-(4-Chloro-phenylamino)-pyrimidin-5-yl]-(3-methyl-piperidin-1-yl)-methanone] | 96 | 
11 | CC1CCCN(C(=O)c2ccc(Nc3ccc(Cl)cc3)nn2)C1 (racemic) [Compound 8.2, rac-[6-(4-Chloro-phenylamino)-pyridazin-3-yl]-(3-methyl-piperidin-1-yl)-methanone] | 100 | 
12 | Cc1cccc(C#C[C@]2(O)CCC[C@@H]3[C@H]2CCN3C(=O)c2ccc(Nc3ccc(Cl)cc3)nc2)c1 (relative stereo) [Compound 4.14, [6-(4-Chloro-phenylamino)-pyridin-3-yl]-(rel-(3aR,4S,7aR)-4-hydroxy-4-m-tolylethynyl-octahydro-indol-1-yl)-methanone] | 86 | 
13 | CCN(CC)C(=O)c1ccc(Nc2ccc(Cl)cc2)nc1 [Compound 1.1, 6-(4-Chloro-phenylamino)-N,N-diethyl-nicotinamide hydrochloride] | 95 | 
14 | CCN(CC)C(=O)c1ccc(Nc2ccc(C)cc2)nc1 [Compound 1.2, N,N-Diethyl-6-p-tolylamino-nicotinamide hydrochloride] | 93 | 
15 | CCN(CC)C(=O)c1ccc(Nc2ccc(OC)cc2)nc1 [Compound 1.3, N,N-Diethyl-6-(4-methoxy-phenylamino)-nicotinamide hydrochloride] | 75 | 
16 | COCCN(CCOC)C(=O)c1ccc(Nc2ccc(Cl)cc2)nc1 [Compound 1.4, 6-(4-Chloro-phenylamino)-N,N-bis-(2-methoxy-ethyl)-nicotinamide hydrochloride] | 37 | 
17 | O=C(c1ccc(Nc2ccc(Cl)c(F)c2)nc1)N1CCCCC1 [Compound 1.5, [6-(4-Chloro-3-fluoro-phenylamino)-pyridin-3-yl]-piperidin-1-yl-methanone] | 90 | 
18 | O=C(c1ccc(Nc2ccc(Br)cc2)nc1)N1CCCCC1 [Compound 1.6, [6-(4-Bromo-phenylamino)-pyridin-3-yl]-piperidin-1-yl-methanone] | 96 | 
19 | N#Cc1ccc(Nc2ccc(C(=O)N3CCCCC3)cn2)cc1 [Compound 1.7, 4-[5-(Piperidine-1-carbonyl)-pyridin-2-ylamino]-benzonitrile] | 77 | 
20 | O=C(c1ccc(Nc2ccc(OC(F)(F)F)cc2)nc1)N1CCCCC1 [Compound 1.8, Piperidin-1-yl-[6-(4-trifluoromethoxy-phenylamino)-pyridin-3-yl]-methanone] | 54 | 
21 | CC1CCCCN1C(=O)c1ccc(Nc2ccc(Cl)cc2)nc1 (stereo not drawn) [Compound 1.9, [6-(4-Chloro-phenylamino)-pyridin-3-yl]-(2-methyl-piperidin-1-yl)-methanone hydrochloride] | 97 | 

Row | SMILES | inhibition at 10 µM [%] | mGluR5 Activity inh. at 10 μM [%]
22 | Cc1ccc(Nc2ccc(C(=O)N3CCCCC3C)cn2)cc1 (stereo not drawn) [Compound 1.10, (2-Methyl-piperidin-1-yl)-(6-p-tolylamino-pyridin-3-yl)-methanone] | 94 | 
23 | COc1ccc(Nc2ccc(C(=O)N3CCCCC3C)cn2)cc1 (stereo not drawn) [Compound 1.11, [6-(4-Methoxy-phenylamino)-pyridin-3-yl]-(2-methyl-piperidin-1-yl)-methanone hydrochloride] | 71 | 
24 | C[C@H]1CCCN(C(=O)c2ccc(Nc3ccc(Cl)cc3)nc2)C1 [Compound 1.12a, [6-(4-Chloro-phenylamino)-pyridin-3-yl]-(S-3-methyl-piperidin-1-yl)-methanone] |  | 99
25 | C[C@@H]1CCCN(C(=O)c2ccc(Nc3ccc(Cl)cc3)nc2)C1 [Compound 1.12b, [6-(4-Chloro-phenylamino)-pyridin-3-yl]-(R-3-methyl-piperidin-1-yl)-methanone] | 100 | 
26 | Cc1ccc(Nc2ccc(C(=O)N3CCCC(C)C3)cn2)cc1 (stereo not drawn) [Compound 1.13] |  | 96
27 | COc1ccc(Nc2ccc(C(=O)N3CCCC(C)C3)cn2)cc1 (stereo not drawn) [Compound 1.14, [6-(4-Methoxy-phenylamino)-pyridin-3-yl]-(3-methyl-piperidin-1-yl)-methanone hydrochloride] | 94 | 
28 | CC1CCCN(C(=O)c2ccc(Nc3ccccc3)nc2)C1 (stereo not drawn) [Compound 1.15, (3-Methyl-piperidin-1-yl)-(6-phenylamino-pyridin-3-yl)-methanone hydrochloride] | 88 | 
29 | CC1CCCN(C(=O)c2ccc(Nc3cccc(Cl)c3)nc2)C1 (stereo not drawn) [Compound 1.16, [6-(3-Chloro-phenylamino)-pyridin-3-yl]-(3-methyl-piperidin-1-yl)-methanone hydrochloride] | 54 | 
30 | O=C(c1ccc(Nc2ccc(Cl)cc2)nc1)N1CCOCC1 [Compound 1.17, [6-(4-Chloro-phenylamino)-pyridin-3-yl]-morpholin-4-yl-methanone hydrochloride] | 83 | 
31 | COc1ccc(Nc2ccc(C(=O)N3CCOCC3)cn2)cc1 [Compound 1.18, [6-(4-Methoxy-phenylamino)-pyridin-3-yl]-morpholin-4-yl-methanone hydrochloride] | 32 | 
32 | C[C@@H]1CN(C(=O)c2ccc(Nc3ccc(Cl)cc3)nc2)C[C@H](C)O1 [Compound 1.19, cis-[6-(4-Chloro-phenylamino)-pyridin-3-yl]-(2,6-dimethyl-morpholin-4-yl)-methanone hydrochloride] | 94 | 
33 | Cc1ccc(Nc2ccc(C(=O)N3C[C@@H](C)O[C@@H](C)C3)cn2)cc1 [Compound 1.20, (cis-2,6-Dimethyl-morpholin-4-yl)-(6-p-tolylamino-pyridin-3-yl)-methanone hydrochloride] | 95 | 
34 | COc1ccc(Nc2ccc(C(=O)N3C[C@@H](C)O[C@@H](C)C3)cn2)cc1.Cl [Compound 1.21, (cis-Z 6-Dimethyl-morpholin-4-yl)-[6-(4-methoxy-phenylamino)-pyridin-3-yl]-methanone hydrochloride] |  | 57
35 | O=C(c1ccc(Nc2ccc(Cl)cn2)nc1)N1CCCCC1 [Compound 2.1, [6-(5-Chloro-pyridin-2-ylamino)-pyridin-3-yl]-piperidin-1-yl-methanone] | 60 | 
36 | O=C(c1ccc(Nc2cccnc2)nc1)N1CCCCCC1 [Compound 2.2, Azepan-1-yl-[6-(pyridin-3-ylamino)-pyridin-3-yl]-methanone] | 46 | 
37 | O=C(c1ccc(Nc2ccc(F)c(F)c2)nc1)N1CCCCC1 [Compound 2.3, [6-(3,4-Difluoro-phenylamino)-pyridin-3-yl]-piperidin-1-yl-methanone] | 65 | 
38 | O=C(c1cnc(Nc2ccc(Cl)cc2)c(Cl)c1)N1CCSCC1 [Compound 2.5, [5-Chloro-6-(4-chloro-phenylamino)-pyridin-3-yl]-thiomorpholin-4-yl-methanone] | 97 | 
39 | COc1ccc(Nc2ncc(C(=O)N3CCCCCC3)cc2Cl)cn1 [Compound 2.7, Azepan-1-yl-[5-chloro-6-(6-methoxy-pyridin-3-ylamino)-pyridin-3-yl]-methanone] | 98 | 
40 | COc1ccc(Nc2ncc(C(=O)N3CCCCC3)cc2Cl)cn1 [Compound 2.8, [5-Chloro-6-(6-methoxy-pyridin-3-ylamino)-pyridin-3-yl]-piperidin-1-yl-methanone] | 96 | 
41 | CCOc1ccc(Nc2ncc(C(=O)N3CCCCC3)cc2Cl)cn1 [Compound 2.9, [5-Chloro-6-(6-ethoxy-pyridin-3-ylamino)-pyridin-3-yl]-piperidin-1-yl-methanone] | 100 | 
42 | Cc1ccc(Nc2ncc(C(=O)N3CCSC3)cc2Cl)cn1 [Compound 2.14, [5-Chloro-6-(6-methyl-pyridin-3-ylamino)-pyridin-3-yl]-thiazolidin-3-yl-methanone] | 97 | 
